In patent publication US8952149B2, “Tricyclic tetrahydroquinoline antibacterial agents” (Zoetis LLC, priority 2012, dated 2015):
In brackets after ≈: the same amount, converted by molar mass.

Assays:
S. pyogenes 02C0203 [1] = test: AUC/MIC ratios required for efficacy (PK-PD); assay type: in vivo; conditions: free AUC required for efficacy against S. pyogenes 02C0203 in mice
Description: (§1) In this example, the plasma concentrations of selected compounds were determined in mice that were infected with S. pyogenes 02C0203 at an oral dose of 100 mg/kg^4. Plasma samples were assayed for selected compounds using LC/MS/MS with multiple reaction monitoring. Free fractions were measured using equilibrium dialysis^5.
(§2) Separate groups of immunosuppressed mice were infected as above and orally dosed 2 hours post-infection with 100 mg/kg of the selected compounds. Thigh tissue samples (10% in PBS) and plasma were collected at 0.5, 1, 2, 4, 8 and 24 hours post-dose (n=3) for quantitation of drug levels. Bacterial burden was quantitated in the thigh tissue samples from treated mice and from infected, untreated mice at each timepoint.

[2] = Plasma concentrations in infected mice after an oral dose (LC/MS/MS); assay type: in vivo; conditions: for concentration at 0.5 h / concentration at 1 h / concentration at 2 h / concentration at 4 h / concentration at 8 h / concentration at 24 h: CF-1, mouse, plasma, infected mice (n = 3), oral 100 mg/kg; for oral exposure (in words): mice infected with S. pyogenes 02C0203, 100 mg/kg
Description: as §1, §2

S. pyogenes 02C0203 [3] = test: Neutropenic soft tissue (thigh abscess) infection model; assay type: in vivo, CF-1 female mice; conditions: thigh tissue 24 hours post-dose
Description: In this example, the in vivo antibacterial efficacy of selected compounds was determined in a neutropenic soft tissue infection model in CF-1 female mice challenged with Streptococcus pyogenes 02C0203. With the exception of modifications discussed here, the murine soft tissue infection model was previously described by Craig et al. (6, 7, 8).
CF-1 female mice were immunosuppressed with oral doses of cyclophosphamide in sterile water on Day-4 (150 mg/kg) and Day-1 (100 mg/kg). Mice were infected intramuscularly (thigh muscle) with 7×10^5 cfu of S. pyogenes 02C0203 in 0.1 ml brain heart infusion broth on Day 0. Two hours post-infection, mice received a single oral dose of selected compounds. The compounds were administered orally from a spray dried dispersion (SDD) in 0.5% (wt/v) methylcellulose (MC), 0.5% (wt/v) hydroxypropyl methylcellulose acetate succinate medium, fine powder (HPMCAS-MF) in 20 mM Tris buffer (pH 7.4). Thigh tissue was collected 24 hours post-dose. Serial ten-fold dilutions of tissue homogenates prepared in sterile phosphate buffered saline were plated on 5% sheep blood agar plates for enumeration of bacterial burden.
as §2

S. pyogenes 02C0203 [4] = test: In vitro MIC testing by microbroth dilution; assay type: cell-based, Streptococcus pyogenes; conditions: for antibacterial activity (in words): S. pyogenes 02C0203; for MIC: Streptococcus pyogenes, 02C0203, microbroth dilution, 35° C., 16 to 24 hours
Description: Except for clarifying or modifying statements, MIC testing followed procedures recommended by the NCCLS^1-2 or followed the descriptions cited below.
At least the following organisms are included in the screen: S. pyogenes 02C0203. Incubations were at 35° C. Stock bacterial cultures were maintained on Tryptic Soy Agar containing 5% Sheep Blood (BD, Becton Dickinson Microbiology Systems, Cockeysville, Md.), anaerobes were maintained on Anaerobic Blood Agar plates—CDC Formulation (BD), and fastidious organisms were maintained on Chocolate Agar II Plates (BD). Specific conditions of handling are listed below.
Frozen stock cultures were used as the initial source of organisms for performing microbroth dilution MIC testing. Stock cultures were passed on their standard growth medium for at least 1 growth cycle (18 to 24 hours) prior to their use.
Most bacteria, unless otherwise noted, were prepared directly from agar plates in 10 mL aliquots of the appropriate broth medium. Bacterial cultures were adjusted to the opacity of a 0.5 McFarland Standard (optical density value of 0.28-0.33 on a Perkin-Elmer Lambda EZ150 Spectrophotometer Wellesley, Mass., set at a wavelength of 600 nm). The adjusted cultures were diluted 400 fold (0.25 mL inoculum+100 mL broth) in growth media to produce a starting suspension of approximately 5×10^5 colony forming units (CFU)/mL. Unless otherwise noted, bacterial strains were tested in cation adjusted Mueller Hinton Broth (CAMHB).
Compounds were solubilized in DMSO. Drug stock solutions were prepared on the day of testing. Drugs were weight corrected for assay content where necessary.
Microbroth dilution stock plates were prepared in two dilution series, 64 to 0.06 μg drug/mL and 0.25 to 0.00025 μg drug/mL. For the high concentration series, 200 μL of stock solution ([…]) was added to duplicate rows of a 96-well microtiter plate. This was used as the first well in the dilution series. Serial two-fold decremental dilutions were made using a BioMek FX robot (Beckman Coulter Inc., Fullerton, Calif.) with 10 of the remaining 11 wells, each of which contained 100 μL of the appropriate solvent/diluent. Row 12 contained solvent/diluent only and served as the control. For tube one of the low concentration series, 200 µL of an 8 μg/mL stock was added to duplicate rows of a 96-well plate. Serial two-fold dilutions were made as described above.
Daughter plates were spotted (3.2 μL/well) from the stock plates listed above using the BioMek FX robot and were either used immediately or frozen at −70° C. until use.
Aerobic organisms were inoculated (100 μL volumes) into the thawed plates using the BioMek FX robot. The inoculated plates were placed in stacks of no more than 5 and covered with an empty plate. These plates were incubated 16 to 24 hours in ambient atmosphere according to CLSI guidelines^2.
After inoculation and incubation, the degree of bacterial growth was estimated visually with the aid of a Test Reading Mirror (Dynex Technologies 220 16) in a darkened room with a single light shining directly through the top of the microbroth tray. The MIC was the lowest concentration of drug that prevented macroscopically visible growth under the conditions of the test. Testing was performed in duplicate. When the MIC values in duplicate tests varied by 1 well (2-fold), the […] values were reported. If the MICs varied by 2 dilutions, the middle value was reported. […]

| SMILES | Target fAUC (S. pyogenes 02C0203 [1]) | concentration at 0.5 h [2] | concentration at 1 h [2] | concentration at 2 h [2] | concentration at 4 h [2] | concentration at 8 h [2] | concentration at 24 h [2] | oral exposure (in words) [2] | Log10 geometric mean recoverable cfu (S. pyogenes 02C0203 [3]; single oral dose 12.5 mg/kg) | Mean log10 cfu reduction vs. infected controls (S. pyogenes 02C0203 [3]; single oral dose 12.5 mg/kg) | Log10 geometric mean recoverable cfu (S. pyogenes 02C0203 [3]; single oral dose 25 mg/kg) | Mean log10 cfu reduction vs. infected controls (S. pyogenes 02C0203 [3]; single oral dose 25 mg/kg) | Log10 geometric mean recoverable cfu (S. pyogenes 02C0203 [3]; single oral dose 50 mg/kg) | Mean log10 cfu reduction vs. infected controls (S. pyogenes 02C0203 [3]; single oral dose 50 mg/kg) | Log10 geometric mean recoverable cfu (S. pyogenes 02C0203 [3]; single oral dose 100 mg/kg) | Mean log10 cfu reduction vs. infected controls (S. pyogenes 02C0203 [3]; single oral dose 100 mg/kg) | Log10 geometric mean recoverable cfu (S. pyogenes 02C0203 [3]; single oral dose 200 mg/kg) | Mean log10 cfu reduction vs. infected controls (S. pyogenes 02C0203 [3]; single oral dose 200 mg/kg) | antibacterial activity (in words) (S. pyogenes 02C0203 [4]) | MIC (S. pyogenes 02C0203 [4]) |
| --- | --- | --- | --- | --- | --- | --- | --- | --- | --- | --- | --- | --- | --- | --- | --- | --- | --- | --- | --- | --- |
| Cc1coc(-c2cc(F)c3c(c2)CC2(C(=O)NC(=O)NC2=O)[C@H]2[C@H](C)O[C@H](C)CN32)n1 (single isomer, unassigned) [Example 1] | 2000 ng·h/mL | 13500 ng/mL | 13300 ng/mL | 21500 ng/mL | 24500 ng/mL | 7450 ng/mL | 176 ng/mL | demonstrated oral exposure | 6.17 | 0.53 | 5.45 | 1.25 | 4.60 | 2.10 | 3.49 | 3.21 | 2.85 | 3.85 | antibacterial activity | 1 µg/mL (≈ 2.33 µM) |
| CCc1coc(-c2cc3c(c(F)c2F)N2C[C@H](C)O[C@H](C)[C@H]2C2(C3)C(=O)NC(=O)NC2=O)n1 (racemic) [Example 9, (2S,4R,4aR)-8-(4-ethyloxazol-2-yl)-9,10-difluoro-2,4-dimethyl-2,4,4a,6-tetrahydro-1H,1′H-spiro[[1,4]oxazino[4,3-a]quinoline-5,5′-pyrimidine]-2′,4′,6′(3′H)-trione] | 4000 ng·h/mL | 19400 ng/mL | 19000 ng/mL | 23000 ng/mL | 22900 ng/mL | 18100 ng/mL | 2180 ng/mL | demonstrated oral exposure | – | – | – | – | – | – | – | – | – | – | antibacterial activity | 1 µg/mL (≈ 2.17 µM) |
| Cc1ncc(-c2cc3c(cc2F)N2C[C@@H](C)O[C@@H](C)[C@@H]2C2(C3)C(=O)NC(=O)NC2=O)cn1 [Comparator Compound from the Literature, reference compound] | – | 11100 ng/mL | 17100 ng/mL | 16000 ng/mL | 8530 ng/mL | 3700 ng/mL | 1400 ng/mL | – | 6.48 | −0.11 | 6.52 | −0.07 | 6.48 | −0.11 | 4.62 | −1.97 | 4.32 | −2.27 | – | 2 µg/mL (≈ 4.55 µM) |
| Cc1cc(-c2cc3c(c(F)c2F)N2C[C@@H](C)O[C@@H](C)[C@@H]2C2(C3)C(=O)NC(=O)NC2=O)on1 (single isomer, unassigned) [Example 2] | – | – | – | – | – | – | – | – | 6.23 | 0.47 | 5.76 | 0.94 | 5.07 | 1.63 | 2.11 | 4.59 | 1.92 | 4.78 | – | – |
